Legend:
Format in all cases: cell-based
LNCaP cells = test: Immunoblot of JAK2/STAT5 pathway in positive control cells
Protocol: The disclosure turns now to sodium dodecyl sulfate-polyacrylamide gel, electrophoresis, and immunoblots. Cells were directly lysed in Laemmli buffer supplemented with 1% protease inhibitor cocktail (Sigma-Aldrich) and 5% β-mercaptoethanol (Sigma-Aldrich). Lysates were heated at 95° C. for 10 minutes, separated by sodium dodecyl sulfate-polyacrylamide gel electrophoresis on 10% Tris-glycine precast gels, and transferred to polyvinylidene difluoride membranes. Rabbit or mouse antibodies used were specific for phosphorylated Akt (p-Akt), pan-Akt, p-FoxO1, FoxO1, p-JAK2, JAK2, and β-actin; for p-ERK, ERK-2, STAT5, and the precursor form of SREBP-1; and for p-STAT5. Membranes were blocked with 5% bovine serum albumin in Tris-buffered saline containing 0.01% polysorbate 20. All primary antibodies were diluted to 1:1000 in blocking buffer except for p-Akt (1:4000), p-ERK (1:2000), ERK-2 (1:4000), SREBP-1 (1:200), and β-actin (1:10 000). Horseradish peroxidase-conjugated secondary antibodies were goat anti-rabbit IgG and Fc-specific goat anti-mouse IgG diluted to 1:5000. […]
FIGS. 9a, 9b, and 9c illustrate the effects of insulin-like growth factor 1 (IGF-1) and growth hormone (GH) on signaling pathways in human meibomian gland epithelial cells. […] Cell lysates were evaluated on immunoblotting. […]

[1] = test system: human meibomian gland epithelial cells; test: Transmission electron microscopy of lysosomal lamellar bodies; details: 10 μg/ml, 5 days
Excerpt: (§1) Cell numbers were enumerated with a hemocytometer. Cellular lipid and lysosome accumulation were examined by staining cells with: Filipin III (a fluorometric probe for identifying unesterified cholesterol), LipidTOX green neutral lipid stain, and LysoTracker® Red DND-99 (a fluorescent technique designed for labeling acidic organelles such as lysosomes). Lysosomal lamellar bodies were identified by transmission electron microscopy. In brief, after culture and treatment on 24 mm polycarbonate membrane transwell inserts (0.4 μm pore size), cells were fixed in a solution of 2% formaldehyde+2.5% glutaraldehyde, in 0.08 M sodium cacodylate buffer, pH 7.4, post-fixed with 2% osmium tetroxide in 0.1 M sodium cacodylate buffer, and stained en bloc with 2% aqueousuranyl acetate. Samples were then dehydrated in graded ethyl alcohol solutions and embedded by using the tEPON-812 epoxy resin kit. Cross sections (1 μM) were stained with 1% toluidine blue in 1% sodium tetraborate solution. Ultra-thin sections (60-90 nm) were imaged with a transmission electron microscope interfaced with a digital CCD camera. For biochemical assessments, cellular lipids were extracted with chloroform and methanol from samples with the same amount of protein. Lipids were then evaluated with high-performance thin-layer chromatography. […] Image data were quantified with ImageJ (http://rsbweb.nib.gov/ij/index.html). […]

[2] = test system: human meibomian gland epithelial cells; test: Filipin III staining of free (unesterified) cholesterol; details: 10 μg/ml, 5 days
Protocol: This section outlines the materials and methods that produced the experimental data. Immortalized human meibomian gland epithelial cells were cultured in the presence or absence of 10% fetal bovine serum. After reaching 80-90% confluence (˜5×10^6/well), cells were exposed to the vehicle (0.02% ethanol) or azithromycin (10 μg/ml) for 5 days and then processed for histological and biochemical procedures.
as §1, with “Samples were then dehydrated in graded ethyl alcohol solutions and embedded by using the tEPON-812 epoxy resin kit. Cross sections (1 μM) were stained with 1% toluidine blue in 1% sodium tetraborate solution. Ultra-thin sections (60-90 nm) were imaged with a transmission electron microscope interfaced with a digital CCD camera. For biochemical assessments, cellular lipids were extracted with chloroform and methanol from samples with the same amount of protein.” left out

[3] = test system: human meibomian gland epithelial cells; test: LysoTracker Red staining of lysosomes; details: 10 μg/ml, 5 days
Protocol: This section outlines the materials and methods that produced the experimental data. Immortalized human meibomian gland epithelial cells were cultured in the presence or absence of 10% fetal bovine serum. […]
as §1, with “Ultra-thin sections (60-90 nm) were imaged with a transmission electron microscope interfaced with a digital CCD camera. For biochemical assessments, cellular lipids were extracted with chloroform and methanol from samples with the same amount of protein.” left out

[4] = test system: immortalized human meibomian gland cells; test: 13-cis RA-induced late apoptosis/necrosis

## GH: human growth hormone
LNCaP cells
  activation of JAK2/STAT5 pathway: activated the JAK2/STAT5 pathway

## CC[C@H]1OC(=O)[C@H](C)[C@@H](O[C@H]2C[C@@](C)(OC)[C@@H](O)[C@H](C)O2)[C@H](C)[C@@H](O[C@@H]2O[C@H](C)C[C@H](N(C)C)[C@H]2O)[C@](C)(O)C[C@@H](C)CN(C)[C@H](C)[C@@H](O)[C@]1(C)O [Azithromycin]
[1]
  lysosomal lamellar bodies: many of these lysosomes appear to be onion-shaped lamellar bodies
[2]
  accumulation of free cholesterol (Filipin): significantly stimulates the accumulation
[3]
  accumulation of lysosomes (LysoTracker): significantly stimulates the accumulation

## IGF-1: recombinant human insulin-like growth factor 1
[4]
  13-cis RA-induced late apoptosis/necrosis: attenuates
